The test has as its system intestinal transit. Kind of test: Intestinal transit in multi-fistulated dogs, cumulative % recovery of 99mTc-DTPA. In kind it is in vivo, dog. The procedure, abridged:
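Fistulated mongrel dogs (~25 kg) had the ~150 cm segment between duodenal and mid-gut fistulas isolated by occluding catheters and perfused at 2 mL/min with buffer plus test agent (some given i.v.). About 20 μCi 99mTc-DTPA was given as a bolus at 60 min of a 90-min perfusion. Mid-gut output was collected every 5 min for 30 min, gamma-counted, and reported as cumulative % recovery.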

Take `CCCCCCCC/C=C\CCCCCCCC(=O)[O-].[Na+]` [oleate, sodium oleate]: under “60 mM oleate distal gut, Saline (i.v.), Buffer Control 70.11 ± 6.51, five dogs”, the “proximal intestinal transit, cumulative % marker recovered” value is 26.62 ± 5.36%. Besides, the marker recovery by setting is: (60 mM oleate in proximal gut + normal saline (jejunal brake), n=3) 41.6±4.6%; (60 mM oleate in proximal gut with 0 mg naloxone, n=7) 30.0±3.6%; (60 mM oleate into distal gut, Buffer Control 79.7±5.8%, n=2 dogs) 25.8±5.2%; (60 mM oleate to distal gut (ileal brake), Buffer Control 81.2%) 24.1%; (ileal brake (oleate in distal gut, buffer in proximal gut), control 76.3±3.1%, four dogs) 22.9±3.8%; (ileal brake, 60 mM oleate into distal gut, n=2) 20±1.8%. The compound also gave a marker recovery (ileal brake, 60 mM oleate to distal gut, no naloxone, n=11) of 34.6±4.8%.

Source of the values: patent publication US9358276B2, “Methods of diagnosing and treating small intestinal bacterial overgrowth (SIBO) and SIBO-related conditions” (Cedars-Sinai Medical Center, priority 1999, dated 2016).
